Measured values: PMC11623267, “Inhibitors of malaria parasite cyclic nucleotide phosphodiesterases block asexual blood-stage development and mosquito transmission” (Science Advances, 2024)
Like-named read-outs stand apart in the source and are kept apart here.

Tests used:
[1] = system: cGMP-PDE activity in gametocyte lysates (PDEα, PDEδ); test: cGMP hydrolysis SPA in stage IV/V gametocyte membrane lysates; format: biochemical, Plasmodium falciparum; settings: gametocyte lysate; geometric mean ×/÷ geometric SD
Experimental: cGMP signaling is known to play an essential role in gametogenesis in Plasmodium ([19], [20], [28]). We therefore tested the effects of all newly synthesized analogs for their ability to inhibit cGMP hydrolysis in crude gametocyte membrane preparations. […] S5A. These findings were also consistent with our enzyme-linked immunosorbent assay (ELISA)–based measurement of elevated cGMP levels in gametocytes following incubation with an example of each subseries (Fig. 2A). […] The levels of cAMP detected in gametocytes were similar in dimethyl sulfoxide (DMSO)–, XA-, and inhibitor-treated samples, and we could detect little or no cAMP hydrolysis in mature gametocytes (fig. S5B). […]
(§1) The cyclic nucleotide hydrolytic activity of membrane-associated parasite PDE enzymes was measured by a scintillation proximity assay (SPA) ([18]) using lysates of mature P. falciparum schizonts or stage IV/V gametocytes. […] The IC50 values for the compounds were determined using threefold serial dilutions in duplicate. […] The reactions were terminated by addition of 25 μl of PDE SPA beads (PerkinElmer, RPNQ0150), and after 20 min of incubation at room temperature, scintillation was measured using a Wallac 1450 Microbeta Counter (PerkinElmer) for 30 s. […]

[2] = system: P. falciparum Dd2-B2 lines selected under drug pressure; test: 72-hour flow cytometry EC50 assay, lines selected under drug pressure; format: cell-based, Plasmodium falciparum; settings: for EC50: Plasmodium falciparum
Experimental: Three examples of an additional compound series developed independently [NPD-2958, NPD-3518 ([31]), and NPD-3738; fig.
(§2) Stocks of SAL-0010003 (5-benzyl), SAL-0010355 (5-aryl), and SAL-0010419 (2-alkyl) were made at 10 and 1 mM in DMSO. Aliquots in use were stored at −20°C, and long-term storage was at −80°C. All in vitro studies were done such that the final DMSO concentration was <0.5%. P. falciparum ABS parasites were cultured at 3% hematocrit in human O+ RBCs in RPMI 1640 medium, supplemented with 25 mM Hepes, 50 mg L-hypoxanthine, 2 mM L-glutamine, 0.225% sodium bicarbonate, 0.5% (w/v) AlbuMAX II (Invitrogen) and gentamycin (10 μg/ml), in modular incubator chambers (Billups-Rothenberg) at 5% O2, 5% CO2, and 90% N2 at 37°C. Dd2-B2 (obtained from T. Wellems, National Institute of Allergy and Infectious Diseases, National Institutes of Health) is a genetically homogenous line that was cloned from Dd2 by limiting dilution. To define the EC50 and EC90 values of ABS parasites, Dd2-B2 ring-stage cultures at 0.2% parasitemia and 1% hematocrit were exposed for 72 hours to a range of 10 drug concentrations that were twofold serially diluted in duplicates along with drug-free controls. Parasite survival was assessed by flow cytometry on an iQue flow cytometer (Sartorius) using SYBR Green and MitoTracker Deep Red FM (Life Technologies) as nuclear stain and vital dyes, respectively. After determination of the EC50 and EC90 values for the three compounds with the P. falciparum Dd2-B2 clone, one single-step selection was set up using 2 × 10^5 parasites in each well of a 96-well plate at a starting concentration of 3× EC90. Parasites were cleared from the culture rapidly, and cultures were screened three times weekly by flow cytometry and counted as positive for recrudescence when the overall parasitemia reached 0.3% and the parasites were visible on a blood smear. DNA was extracted from recrudescent lines using a QIAGEN QIAamp Blood Mini Kit, and libraries were prepared with the Illumina DNA Prep kit for whole-genome sequencing on the Illumina MiSeq using a V3 2 × 300–base pair flow cell.

P. falciparum Dd2-B2 = test: 72-hour flow cytometry EC50 assay, Dd2-B2 parental line; format: cell-based, Plasmodium falciparum; settings: Plasmodium falciparum, DD2, read-out: EC50 Dd2-B2 parental line
Experimental: as §2

P. falciparum 3D7 = P. falciparum 3D7 LDH growth inhibition assay (asexual blood stage); format: cell-based, Plasmodium falciparum
Experimental: P. falciparum isolates (3D7/Dd2) were obtained from BEI Resources and were cultured using standard procedures as described elsewhere ([47]). Briefly, P. falciparum was grown in RPMI 1640 medium (10.3 g/liter) supplemented with L-glutamine (2 mM), hypoxanthine (150 μM), Hepes (25 mM), D-glucose (12 mM), sodium bicarbonate (25.7 mM), AlbuMAX II (0.5% or 5 g/liter) (pH 7.4), and 2% RBC (type O+, freshly prepared). Cultures were replenished with fresh medium and RBCs every other day. For RBC preparation, whole blood was centrifuged at 415g at room temperature for 12 min. After that, the plasma and buffy coat were removed, and packed RBCs were washed three times with 3 vol of RPMI 1640. Last, RBCs were resuspended in 1:1 vol of complete RPMI 1640 medium (containing 0.5% AlbuMAX II).
The P. falciparum 3D7 and Dd2 LDH growth inhibition assay was carried out as described elsewhere ([48]) with minor modification of the parasitological conditions (10 to 15% parasitemia with ≥80% rings). Data were normalized to percent growth inhibition with respect to […] (for 3D7, a mixture of 100 nM chloroquine and 100 nM atovaquone as 100% inhibition; for Dd2, a mixture of 200 nM DHA and 200 nM atovaquone as 100% inhibition) controls.

PDEβ = biological target: T1, PDEβ (Plasmodium falciparum, UniProt Q8I6Z7); test: cAMP hydrolysis SPA in schizont membrane lysates; format: biochemical; settings: read-out: IC50 against PDEβ
T1 construct: endogenous in cells; host or cells: P. falciparum 3D7 schizonts, NP-40 membrane lysate
T1 sequence (Q8I6Z7 whole entry): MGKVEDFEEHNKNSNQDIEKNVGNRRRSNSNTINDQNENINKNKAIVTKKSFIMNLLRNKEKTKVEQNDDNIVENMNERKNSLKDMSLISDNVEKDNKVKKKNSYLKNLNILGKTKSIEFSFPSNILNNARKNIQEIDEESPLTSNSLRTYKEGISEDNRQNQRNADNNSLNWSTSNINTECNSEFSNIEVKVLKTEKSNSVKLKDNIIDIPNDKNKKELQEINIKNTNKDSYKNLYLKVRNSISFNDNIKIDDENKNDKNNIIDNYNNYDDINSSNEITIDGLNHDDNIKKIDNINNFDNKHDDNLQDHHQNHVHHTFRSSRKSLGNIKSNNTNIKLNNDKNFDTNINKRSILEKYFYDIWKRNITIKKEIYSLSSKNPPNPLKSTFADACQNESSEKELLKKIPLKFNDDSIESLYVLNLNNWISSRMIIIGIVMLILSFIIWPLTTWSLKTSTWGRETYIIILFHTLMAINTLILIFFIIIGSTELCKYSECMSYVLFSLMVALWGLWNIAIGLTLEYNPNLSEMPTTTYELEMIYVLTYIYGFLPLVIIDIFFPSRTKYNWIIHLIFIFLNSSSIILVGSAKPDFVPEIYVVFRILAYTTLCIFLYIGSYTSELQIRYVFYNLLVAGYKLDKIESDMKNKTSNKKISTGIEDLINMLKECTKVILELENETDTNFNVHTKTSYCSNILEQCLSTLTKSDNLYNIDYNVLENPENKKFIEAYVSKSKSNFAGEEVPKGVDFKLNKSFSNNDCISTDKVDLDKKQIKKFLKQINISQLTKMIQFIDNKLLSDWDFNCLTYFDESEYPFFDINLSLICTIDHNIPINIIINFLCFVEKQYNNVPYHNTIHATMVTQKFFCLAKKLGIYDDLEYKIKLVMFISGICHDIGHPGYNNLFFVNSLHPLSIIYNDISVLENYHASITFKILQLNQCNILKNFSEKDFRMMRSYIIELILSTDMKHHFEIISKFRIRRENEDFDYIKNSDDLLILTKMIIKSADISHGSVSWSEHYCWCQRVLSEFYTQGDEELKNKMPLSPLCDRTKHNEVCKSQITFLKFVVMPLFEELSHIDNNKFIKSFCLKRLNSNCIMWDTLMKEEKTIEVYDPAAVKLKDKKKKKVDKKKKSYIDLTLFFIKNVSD
Text: We identified three PDE inhibitor chemical series generated by Pfizer, with structures in the public domain, which have activity against malaria parasites (see the “Chemistry strategy summary” section). These series were originally designed to inhibit human PDEs and were chosen as chemistry start points to optimize activity against malaria parasites. More than 400 new analogs were generated (full details of their properties will be reported in a separate paper, in preparation) through iterative rounds of synthesis and testing. The chemistry start points for each of the series were SAL-0010042 (5-benzyl), SAL-0010043 (5-aryl), and SAL-0010034 (2-alkyl) (see Materials and Methods and fig. S1A). S2. Analytical data for these compounds are provided in data S1. All newly synthesized compounds were tested for inhibition of native cAMP-PDE activity in mature schizont crude membrane preparations and inhibition of P. falciparum ABS growth. S3A. […] The unbound EC50 values for the compounds in the parasite growth inhibition assay were consistently calculated to be sevenfold higher than the IC50 values in the biochemical assay. Given that PDEβ is dual specific (i.e., can hydrolyze both cAMP and cGMP), we also determined IC50 values for cGMP hydrolysis. […] The IC50 values measured for cGMP hydrolysis in blood-stage schizonts were generally similar to those for cAMP hydrolysis (Table 1). […]
as §1

malaria parasites = system: malaria parasites; design: method as in PMID 25951195, PMID 33262483; settings: cited from earlier work
P. falciparum ABS = settings: read-out: Median effective dose, P. falciparum ABS growth inhibition; cited from earlier work

CCc1c2nc(-c3cc(-c4cccnc4)cnc3OCC(C)C)[nH]c(=O)c2nn1CCOC [SAL-0010419]
IC50 [1]: > 10 µM | EC50 ([2]; DD2, read-out: EC50, line selected with SAL-0010419, Well C4): 360 nM | EC50 ([2]; DD2, read-out: EC50, line selected with SAL-0010419, Well E11): 344 nM | EC50 ([2]; DD2, read-out: EC50, line selected with SAL-0010419, Well F8): 293 nM | Mean fold change in EC50 ([2]; selected lines vs Dd2-B2 parental line, ±SD): 5.4 ± 0.6 fold | EC50 shift, line selected with SAL-0010419, Well C4 ([2]; vs Dd2-B2): 5.9 fold | EC50 shift, line selected with SAL-0010419, Well E11 ([2]; vs Dd2-B2): 5.6 fold | EC50 shift, line selected with SAL-0010419, Well F8 ([2]; vs Dd2-B2): 4.8 fold | EC50 (P. falciparum Dd2-B2): 61.4 nM

CCCc1n[nH]c2c(=O)[nH]c(-c3cc(S(=O)(=O)N4CCN(C)CC4)ccc3OCC)nc12 [des-Me sildenafil, desmethyl (des-Me) sildenafil]
EC50 (P. falciparum 3D7; Plasmodium falciparum, 3D7, read-out: EC50 against ABS parasites): 415 nM | Difference in ABS EC50 vs sildenafil (P. falciparum 3D7; des-Me sildenafil vs sildenafil): > 60 fold | IC50 (PDEβ): 36.7 nM

CN1CC(=O)N2[C@H](c3ccc4c(c3)OCO4)c3[nH]c4ccccc4c3C[C@@H]2C1=O [tadalafil]
IC50 against malaria parasites (malaria parasites): mid-to-high micromolar range

CCCOc1ccccc1-c1nc2nn[nH]c2c(=O)[nH]1 [zaprinast]
EC50 (P. falciparum ABS): 35 µM
